Data from paper PMC7534320 (Journal of Enzyme Inhibition and Medicinal Chemistry, 2020).
Values after ≈ are worked out from the molar mass of the structure shown. Read-outs that look alike come from different tables or passages of the source.

Experiments:
[1] = Antioxidant activity, DPPH radical reaction; type: biochemical; details: free substance; linear regression
Description: The antioxidant activity was evaluated using the DPPH radical reaction. The investigation of antioxidant properties was performed spectrophotometrically, according to Studzińska-Sroka’s modifications. […] 25.0 µL of DPPH solution was mixed with 175.0 µL of studied solutions in a 96-well plate, and then the plate was shaken and incubated in darkness for half an hour at room temperature. Subsequently, the absorbance (A) was measured at the wavelength set at 517 nm against the blank (the mixture of DPPH solution and methanol). The inhibition of the DPPH radical by the studied samples was calculated due to the following equation: A=Ao − Ai/Ao x 100% where Ao is the absorbance of the control sample, Ai is the absorbance of studied samples. Every determination was repeated six times. As a reference, vitamin C was used. IC50 values, which determine the concentration of the substance that inhibits the formation of DPPH by 50%, were determined by linear regression analysis.

S. pyrogenes ATCC 19615 = assay: Agar well diffusion technique; type: cell-based; details: 25 mg/mL dissolved in methanol and filtered
S. aureus ATCC 25923 = assay: Agar well diffusion technique; type: cell-based; details: 25 mg/mL dissolved in methanol and filtered
[2] = test system: L. monocytogenes ATCC 7644; assay: Agar well diffusion technique; type: cell-based; details: 25 mg/mL dissolved in methanol and filtered
C. difficile ATCC 9689 = assay: Agar well diffusion technique; type: cell-based; details: 25 mg/mL dissolved in methanol and filtered
E. faecalis ATTC 29212 = assay: Agar well diffusion technique; type: cell-based; details: 25 mg/mL dissolved in methanol and filtered
[3] = PAMPA gastrointestinal (GIT) permeability; type: in vitro ADME
Excerpt: (§1) In vitro gastrointestinal (GIT) and blood–brain barrier (BBB) permeability was studied using the PAMPA model (Parallel Artificial Membrane Permeability Assay). The sandwich consists of two 96-well microfilter plates. The PAMPA system contains two chambers: the donor at the bottom and the acceptor chamber at the top. The chambers are separated by a 120-μm-thick microfilter disc coated with a 20% (w/v) dodecane solution of a lecithin mixture (Pion, Inc.). Before adding samples to the donor compartments, the samples were dissolved in DMSO. The donor solution was adjusted to pH ≈ 6.8 for GIT application and to pH ≈ 7.4 for BBB application using 0.5 M NaOH. The plates were combined and then incubated for 3 h for GIT model and 4 h for BBB model in a humidity-saturated atmosphere at the temperature set at 310 K. The apparent permeability coefficient (Papp) was calculated according to the following equation: Papp=−ln(1−CA/Cequilibrium)/S×(1/VD+1/VA)×t where VD – donor volume, VA – acceptor volume, Cequilibrium – equilibrium concentration Cequilibrium=CD×VD+ CA×VA/VD+VA, S – membrane area, t – incubation time (in seconds).

C. butyricum ATTC 860 = type: cell-based; details: 25 mg/mL dissolved in methanol and filtered
C. albicans ATTC 10231 = assay: Agar well diffusion technique; type: cell-based; details: 25 mg/mL dissolved in methanol and filtered
E. aerogenes ATCC 13048 = assay: Agar well diffusion technique; type: cell-based; details: 25 mg/mL dissolved in methanol and filtered
[4] = test system: P. aereuginosa ATCC 27853; assay: Agar well diffusion technique; type: cell-based; details: 25 mg/mL dissolved in methanol and filtered
P. mirabilis ATCC 12453 = assay: Agar well diffusion technique; type: cell-based; details: 25 mg/mL dissolved in methanol and filtered
E. coli ATCC 25922 = assay: Agar well diffusion technique; type: cell-based; details: 25 mg/mL dissolved in methanol and filtered
[5] = test system: S. typhimurium ATCC 14028; assay: Agar well diffusion technique; type: cell-based; details: 25 mg/mL dissolved in methanol and filtered
K. pneumoniae ATCC 31488 = assay: Agar well diffusion technique; type: cell-based; details: 25 mg/mL dissolved in methanol and filtered
[6] = PAMPA blood–brain barrier (BBB) permeability; type: in vitro ADME
Excerpt: as §1
Compounds with high permeability have the Papp value at the level >4.0 × 10^−6 cm s^−1 [28].

C. krusei ATCC 14243 = assay: Agar well diffusion technique; type: cell-based; details: 25 mg/mL dissolved in methanol and filtered
B. subtillis ATCC 238557 = assay: Agar well diffusion technique; type: cell-based; details: 25 mg/mL dissolved in methanol and filtered
[7] = piperine after incorporation into the cavity of β-cyclodextrin; cited from earlier work

Row | Structure (SMILES) | IC50 DPPH [1] | Inhibition zone (mm) – Agar well diffusion technique (S. pyrogenes ATCC 19615) | Inhibition zone (mm) – Agar well diffusion technique (S. aureus ATCC 25923) | Inhibition zone (mm) – Agar well diffusion technique [2] | Inhibition zone (mm) – Agar well diffusion technique (C. difficile ATCC 9689) | Inhibition zone (mm) – Agar well diffusion technique (E. faecalis ATTC 29212) | Inhibition zone (mm) – Agar well diffusion technique (C. butyricum ATTC 860) | Inhibition zone (mm) – Agar well diffusion technique (C. albicans ATTC 10231) | Inhibition zone (mm) – Agar well diffusion technique (E. aerogenes ATCC 13048) | Inhibition zone (mm) – Agar well diffusion technique [4] | Inhibition zone (mm) – Agar well diffusion technique (P. mirabilis ATCC 12453) | Inhibition zone (mm) – Agar well diffusion technique (E. coli ATCC 25922) | Inhibition zone (mm) – Agar well diffusion technique [5] | Inhibition zone (mm) – Agar well diffusion technique (K. pneumoniae ATCC 31488) | Inhibition zone (mm) – Agar well diffusion technique (C. krusei ATCC 14243) | Inhibition zone (mm) – Agar well diffusion technique (B. subtillis ATCC 238557) | other results
1 | O=C1O[C@H]([C@@H](O)CO)C(O)=C1O [Vitamin C] | 0.066 mg/mL (≈ 0.375 mM) |  |  |  |  |  |  |  |  |  |  |  |  |  |  |  | 
2 | COc1cc(/C=C/C(=O)CC(=O)/C=C/c2ccc(O)c(OC)c2)ccc1O [Curcumin, Diferuloylmethane] |  | 5.0 mm | 4.0 mm | 5.0 mm | 6.5 mm | 10.5 mm | 5.5 mm | 4.5 mm | 2.5 mm | 2.5 mm | 3.0 mm | 3.0 mm | 5.5 mm | 2.5 mm | 2.0 mm | 8.5 mm | permeability classification, GIT PAMPA [3]: well permeable; Papp at 3 h ([3]; pH 6.8): 3.46 ×10⁻⁶ cm/s; permeability classification, BBB PAMPA ([6]; PAMPA): well permeable; Papp at 4 h ([6]; PAMPA, pH 7.4): 31.1 ×10⁻⁶ cm/s
3 | O=C(/C=C/C=C/c1ccc2c(c1)OCO2)N1CCCCC1 [Piperine, piperine] | 38.945 mg/mL (≈ 136 mM) | 2.5 mm | 3.0 mm | 5.0 mm | 3.5 mm | 9.0 mm | 5.5 mm | 2.5 mm | 1.0 mm | 1.5 mm | 1.0 mm | 2.0 mm | 1.5 mm | 2.0 mm | 2.5 mm | 7.0 mm | Papp at 3 h ([3]; donor pH ≈ 6.8, 3 h, 310 K, read-out: Papp of piperine, GIT PAMPA): 19 ×10⁻⁶ cm/s; Papp at 4 h ([6]; PAMPA, donor pH ≈ 7.4, 4 h, 310 K, read-out: Papp of piperine, BBB PAMPA): 11.9 ×10⁻⁶ cm/s; permeability classification, BBB PAMPA ([6]; Papp > 4.0 × 10^−6 cm s^−1 = high permeability): well permeable; increase of solubility of piperine [7]: about 16 folds
